Key:
[1] = tested on: H9; assay: Concentration which inhibits uninfected cell growth of HIV by 50% (IC50>140 uM) in acutely infected H9 lymphocyte cells was determined; assay type: functional, cell-based; details: Homo sapiens
[2] = tested on: H9; assay: Concentration of compound which inhibits virus replication of HIV by 50% (EC50 of 10 uM) in acutely infected H9 lymphocyte cells was determined; assay type: functional, cell-based; details: Homo sapiens

Compound | EC50 [2] | IC50 [1]
COc1c(OCc2ccccc2)c(OCc2ccccc2)cc(CBr)c1-c1c(CBr)cc(OCc2ccccc2)c(OCc2ccccc2)c1OC | 13 µM | 30 µM
O=Cc1cc(OCc2ccccc2)c(OCc2ccccc2)c(OCc2ccccc2)c1-c1c(C=O)cc(OCc2ccccc2)c(OCc2ccccc2)c1OCc1ccccc1 | 45 µM | 70 µM
OCc1cc(OCc2ccccc2)c(OCc2ccccc2)c(OCc2ccccc2)c1-c1c(CO)cc(OCc2ccccc2)c(OCc2ccccc2)c1OCc1ccccc1 | > 120 µM | > 120 µM
BrCc1cc(OCc2ccccc2)c(OCc2ccccc2)c(OCc2ccccc2)c1-c1c(CBr)cc(OCc2ccccc2)c(OCc2ccccc2)c1OCc1ccccc1 | > 100 µM | > 100 µM

Compounds with a lower EC50 [2], results first:

EC50 [2] | Compound | IC50 [1]
0.04 µM | Cc1cn([C@H]2C[C@H](N=[N+]=[N-])[C@@H](CO)O2)c(=O)[nH]c1=O [ZIDOVUDINE] | 2000 µM
2 µM | COc1c(OCc2ccccc2)c(OCc2ccccc2)cc(C=O)c1-c1c(C=O)cc(OCc2ccccc2)c(OCc2ccccc2)c1OC | 4 µM
6 µM | OCc1cc(OCc2ccccc2)c(OCc2ccccc2)c(O)c1-c1c(CO)cc(OCc2ccccc2)c(OCc2ccccc2)c1O | 13 µM
10 µM | COc1c(OCc2ccccc2)c(OCc2ccccc2)cc(CO)c1-c1c(CO)cc(OCc2ccccc2)c(OCc2ccccc2)c1OC | > 140 µM

Source: ChEMBL document CHEMBL1126358, “New hexahydroxydiphenyl derivatives as potent inhibitors of HIV replication in H9 lymphocytes” (Bioorg Med Chem Lett, 1992)
